Entries after “also recorded” stand apart in the source; their conditions may differ.
Assays:
control 3T3 cells = assay: Neurite outgrowth of rat cerebellar neurons on control 3T3 monolayers (Example 15); type: cell-based; conditions: increasing concentrations (FIG. 23)
Experimental: Cell culture and neurite outgrowth assays. Co-cultures of cerebellar neurons on monolayers of control 3T3 cells and monolayers of transfected 3T3 cells that express physiological levels of chick N-cadherin or human L1 were established as previously described (Williams et al., Neuron 13:583-594, 1994). In brief, 80,000 3T3 cells (control and transfected) were plated into individual chambers of an eight-chamber tissue culture slide coated with polylysine and fibronectin and cultured in DMEM/10% FCS. After 24 hours, when confluent monolayers had formed, the medium was removed and 3000 cerebellar neurons isolated from post-natal day 2-3 rats were plated into each well in SATO media (Doherty et al., Nature 343:464-466, 1990) supplemented with 2% FCS. All of the test peptides were added immediately before the neurons as a 2× stock prepared in SATO/2% FCS. The co-cultures were maintained for 16-18 hours, at which time they were fixed and immunostained for GAP-43 which is present only in the neurons and delineates the neuritic processes. The mean length of the longest neurite per cell was measured for 150-200 neurons sampled in replicate cultures as previously described (Williams et al., Neuron 13:583-594, 1994). […] Dose-response curves were evaluated and the EC50 values determined.

OVCAR-3 = assay: Disruption of OVCAR-3 ovarian cancer cell adhesion; type: cell-based, human; conditions: 1, 0.1, or 0.01 mg/ml, up to 48 hours
Experimental: The human ovarian cancer cell line OVCAR-3, which expresses E-cadherin, was used in these experiments. Cells were cultured in RPMI supplemented with insulin and containing 20% FCS. Cells were grown in T-250 culture flasks and maintained by periodic subculturing. Cells were harvested from flasks and seeded in individual wells of 96-well culture dishes (surface area of each well was 0.32 cm^2) at a density of 50,000 cells per well in 0.1 ml media containing the cyclic peptides (at concentrations of 1, 0.1, or 0.01 mg/ml). Media control wells were also established. Cultures were evaluated periodically by microscopic examination under both bright field and phase contrast conditions, and were maintained for 48 hours.

SMILES: CC(=O)N[C@H]1CSSC[C@@H](C(N)=O)NC(=O)[C@H](C(C)C)NC(=O)[C@H](C)NC(=O)[C@H](Cc2c[nH]cn2)NC1=O [N—Ac—CHAVC—NH2, N-Ac-Cys-His-Ala-Val-Cys-NH2]
- effect on neurite extension over control 3T3 cells (control 3T3 cells): had no effect on the basal growth over 3T3 cells; also recorded: no significant effect on neurite extension over control 3T3 cells
- disruption of OVCAR-3 adhesion (OVCAR-3): inactive

From patent US20040106545A1, “Compounds and methods for modulating cell adhesion” (priority 1996, published 2004)
